The results in this text go back to US20240335444A1, “MODULATORS OF BCL6 PROTEOLYSIS AND ASSOCIATED METHODS OF USE” (Arvinas Operations, Inc., priority 2023, published 2024).

In one experiment the test system is OCI-Ly1. The experiment in a line: Tumor growth of DLBCL cell line derived xenograft model OCI-Ly1. Format: in vivo, mice. Conditions: OCI-Ly1 xenograft, dosing dependent. The protocol:
Mice bearing subcutaneous tumors were orally (po) administered vehicle or Compound A at 1, 3, 10, or 30 mg/kg daily for 22 days (qd×22). Dosing began with tumors at an average of 140 mm^3. […] Statistical analyses were performed using 2-way ANOVA: p<0.0001 (****). Error bars represent standard error of the mean (±SEM).
Mice bearing subcutaneous tumors were orally (po) administered vehicle or Compound A at 1, 3, or 10 mg/kg bi-daily for 23 days (bid×23). Dosing began with tumors at an average of 170 mm^3. […] FIG. 7C depicts tumor lysate BCL6 protein levels 16-hours post-last dose analyzed by western blotting. Individual tumor BCL6 levels are shown in a scatter plot, mean is represented by the bar, determined by densitometry, normalized to GAPDH loading controls, and shown as a percentage of vehicle. Percent BCL6 degradation (%) relative to vehicle is shown above each arm. Statistical analyses were performed using 2-way ANOVA: p<0.0001 (****). Error bars represent standard error of the mean (±SEM).

The subject of the next experiment is LY2214. The experiment in a line: PDX model of DLBCL, high-grade B-cell lymphoma (HGBCL, LY2214). Format: in vivo, NOD/SCID or BALB/c Nude Mice. Conditions: 30 mg/kg PO QD×21, compared to vehicle. As for the experimental part: HuPrime® Lymphoma Xenograft Models in NOD/SCID or BALB/c Nude Mice, 4/group, were dosed orally (per os, PO) daily for 21 days (QD×21) and tumor measurements were acquired twice per week. […] Data points represent the mean per group and error bars the standard error of the mean.

The subject of a further experiment is OCI-Ly7. The experiment in a line: Tumor growth of DLBCL cell line derived xenograft model OCI-Ly7. Format: in vivo, mice. Conditions: po 1, 3, 10 or 30 mg/kg daily for 13 days (qd×13), dosing dependent. As for the experimental part: (§1) Mice bearing subcutaneous tumors were orally (po) administered vehicle or Compound A at 1, 3, 10, or 30 mg/kg daily for 13 days (qd×13). Dosing began with tumors at an average of 130 mm^3. […] FIG. 8C depicts tumor lysate BCL6 protein levels 16-hours post-last dose analyzed by western blotting. Individual tumor BCL6 levels are shown in a scatter plot, mean is represented by the bar, determined by densitometry, normalized to GAPDH loading controls, and shown as a percentage of vehicle. Percent BCL6 degradation (%) relative to vehicle is shown above each arm. Statistical analyses were performed using 2-way ANOVA: p<0.0001 (****). Error bars represent standard error of the mean (±SEM).

Experiment [1] has as its target T1, BCL6 protein (Homo sapiens, UniProt P41182). The experiment in a line: Tumor lysate BCL6 protein levels in SU-DHL-2 xenograft (western blotting). Format: in vivo, mice. The arrangement: from tissue; host or cells: subcutaneous xenograft tumors of OCI-Ly1, OCI-Ly7, SU-DHL-2 or OCI-Ly10 cells in mice. Particulars: 16-hours post-last dose. The protocol:
as §1, with “at” for “at 1,”, “mg/kg bi-daily for 27 days (bid×27) or 30 mg/kg” for “mg/kg”, “27” for “13”, “(qd×27).” for “(qd×13).”, “180” for “130”, “9C” for “8C”
In general terms: A western blot detects proteins with antibodies after separation by electrophoresis.

Experiment [2] has as its target T1, BCL6 protein. The experiment in a line: BCL6 protein degradation in DLBCL cell lines measured by ELISA. Format: cell-based. The arrangement: Degradation of BCL6 protein in DLBCL cell lines were measured by ELISA; endogenous in cells; host or cells: OCI-Ly1, Farage, SU-DHL-4, SU-DHL-6, OCI-Ly7, SU-DHL-2, OCI-Ly10. In general terms: ELISA stands for enzyme-linked immunosorbent assay.

A further experiment deals with DLBCL-derived cell lines. The experiment in a line: Nine-day cell growth inhibition assay (CellTiter-Glo). Format: cell-based. Conditions: GCB lines OCI-Ly1, OCI-Ly7, SU-DHL-4, SU-DHL-6 and ABC lines SU-DHL-2, OCI-Ly10; 9 days; top dose 30 nM; concentration dependent. As for the experimental part: Antiproliferative effects of Compound A on DLBCL-derived cell lines were tested. Nine-day cell growth inhibition assays were conducted using GCB lines OCI-Ly1, OCI-Ly7, SU-DHL-4 and SU-DHL-6 (FIG. 3A), and ABC lines SU-DHL-2 and OCI-Ly10 (FIG. 3B) dosed with a 7-point 3-fold serial dilution of Compound A at a top dose of 30 nM. On days 3 and 6-7, samples were split to new 48-well plates for re-treatment, and 20% to a 96-well plate to measure cell viability using CellTiter-Glo (CTG). Split cells in the 48-well plates were retreated and cultured out to day 9, when 20% of each sample was analyzed by CTG. Dose response was plotted as a percentage of vehicle (DMSO) control (FIG. 3A and FIG. 3B). Graphs are representative of at least two independent proliferation assays per cell line.
Background: Cellular ATP, detected with luciferase, serves as a proxy for viable cell number.

Experiment [3] has as its target T1, BCL6 protein. The experiment in a line: Tumor lysate BCL6 protein levels in OCI-Ly10 xenograft (western blotting). The arrangement: from tissue; host or cells: subcutaneous xenograft tumors of OCI-Ly1, OCI-Ly7, SU-DHL-2 or OCI-Ly10 cells in mice. Format: in vivo, mice. Particulars: all dose levels, 16-hours post-last dose (FIG. 10C). As for the experimental part: Mice bearing subcutaneous tumors were orally (po) administered vehicle or Compound A at 3, 10, or 30 mg/kg bi-daily for 28 days (bid×28) or 30 mg/kg daily for 28 days (qd×28). Dosing began with tumors at an average of 190 mm^3. […] FIG. 10C depicts tumor lysate BCL6 protein levels 16-hours post-last dose analyzed by western blotting. Individual tumor BCL6 levels are shown in a scatter plot, mean is represented by the bar, determined by densitometry, normalized to GAPDH loading controls, and shown as a percentage of vehicle. Percent BCL6 degradation (%) relative to vehicle is shown above each arm. Statistical analyses were performed using 2-way ANOVA: p<0.05 (*), p<0.0001 (****). Error bars represent standard error of the mean (±SEM).

The structures appear in SMILES notation.

Turning to `CNC(=O)COc1cc2cc(Nc3nc(N4CCC(O[C@H]5C[C@H](N6CCC(c7ccc8c(c7F)CN(C7CCC(=O)NC7=O)C8=O)CC6)C5)CC4)ncc3Cl)ccc2n(C(C)C)c1=O` (stereo partly shown) [Compound A, 2-({6-[(5-chloro-2-{4-[(1r,3r)-3-{4-[2-(2,6-dioxopiperidin-3-yl)-4-fluoro-1-oxo-2,3-dihydro-1H-isoindol-5-yl]piperidin-1-yl}cyclobutoxy]piperidin-1-yl}pyrimidin-4-yl)amino]-2-oxo-1-(propan-2-yl)-1,2-dihydroquinolin-3-yl}oxy)-N-methylacetamide], the Tumor growth entry was “inhibits the tumor growth” in the experiment with OCI-Ly1 (po 1, 3, 10 or 30 mg/kg daily for 22 days (qd×22)); “inhibits the tumor growth” in the experiment on OCI-Ly1 (po 1, 3 or 10 mg/kg bi-daily for 23 days (bid×23)); “inhibits the tumor growth” with OCI-Ly7. Further, in the experiment with LY2214, the “Change in mean tumor volume” value is “tumor regression”. Further, the “Tumor lysate BCL6 protein level” value at BCL6 protein [1] is listed as “dose-dependent degradation of BCL6 protein”; at BCL6 protein [3], “degraded BCL6 protein”. Also, the BCL6 protein degradation entry on BCL6 protein [2] (ABC DLBCL cell lines SU-DHL-2, OCI-Ly10, 24 hours (FIG. 2C)) is “potent BCL6 protein degradation”; on BCL6 protein [2] (GCB DLBCL cell lines Farage, SU-DHL-4, SU-DHL-6, OCI-Ly7, 24 hours (FIG. 2B)), “potent BCL6 protein degradation”; on BCL6 protein [2] (OCI-Ly1 cell line, 24-hours treatment, compared to E3-binding deficient analogue (FIG. 2A)), “potent BCL6 protein degradation”. Further, the “DLBCL cell growth (antiproliferative effect)” value with DLBCL-derived cell lines is “significant decrease on DLBCL cells growth”.
